Reference: patent US8211654B2, “High-throughput assay for sugar-mediated drug transport” (Wisconsin Alumni Research Foundation, priority 2008, dated 2012)

Experiments:
[1] = compared with the parent ifosfamide; cited from earlier work
GLUT7 = molecular target: T1, GLUT7 (Homo sapiens, UniProt Q6PXP3); conditions: literature; cited from earlier work
T1 construct: host or cells: Xenopus oocytes mainly; also COS-7, CHO, yeast variants (not tied to single values)
T1 sequence (Q6PXP3 1-512): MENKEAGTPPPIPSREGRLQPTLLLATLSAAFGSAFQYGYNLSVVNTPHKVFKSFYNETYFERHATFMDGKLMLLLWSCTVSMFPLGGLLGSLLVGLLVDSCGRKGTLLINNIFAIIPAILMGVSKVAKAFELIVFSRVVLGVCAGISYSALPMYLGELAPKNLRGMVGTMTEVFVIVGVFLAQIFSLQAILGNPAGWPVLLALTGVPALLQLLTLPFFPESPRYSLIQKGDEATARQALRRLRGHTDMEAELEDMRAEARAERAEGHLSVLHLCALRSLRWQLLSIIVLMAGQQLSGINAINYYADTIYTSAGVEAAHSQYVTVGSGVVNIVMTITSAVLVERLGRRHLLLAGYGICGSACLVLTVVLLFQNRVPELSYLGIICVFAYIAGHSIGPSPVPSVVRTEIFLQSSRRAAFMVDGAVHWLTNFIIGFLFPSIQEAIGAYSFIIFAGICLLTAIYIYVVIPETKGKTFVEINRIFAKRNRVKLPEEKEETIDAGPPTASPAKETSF

GLUT5 = molecular target: T2, GLUT5 (Homo sapiens, UniProt P22732); conditions: literature; cited from earlier work
T2 construct: host or cells: Xenopus oocytes mainly; also COS-7, CHO, yeast variants (not tied to single values)
T2 sequence (P22732 1-501): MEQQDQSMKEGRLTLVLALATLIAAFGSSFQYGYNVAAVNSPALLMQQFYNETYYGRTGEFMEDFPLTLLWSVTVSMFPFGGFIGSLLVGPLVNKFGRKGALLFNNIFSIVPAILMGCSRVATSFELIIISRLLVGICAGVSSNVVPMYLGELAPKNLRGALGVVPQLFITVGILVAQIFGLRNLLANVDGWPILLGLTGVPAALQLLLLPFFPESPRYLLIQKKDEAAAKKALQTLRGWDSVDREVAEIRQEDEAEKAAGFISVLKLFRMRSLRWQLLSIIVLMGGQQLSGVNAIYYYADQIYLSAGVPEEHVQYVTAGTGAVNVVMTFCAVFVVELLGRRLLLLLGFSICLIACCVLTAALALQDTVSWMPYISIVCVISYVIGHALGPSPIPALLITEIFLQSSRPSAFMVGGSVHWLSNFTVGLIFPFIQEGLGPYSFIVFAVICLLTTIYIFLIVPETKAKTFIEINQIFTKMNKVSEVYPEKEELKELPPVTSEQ

GLUT11 = molecular target: T3, GLUT11 (Homo sapiens, UniProt Q9BYW1); conditions: literature; cited from earlier work
T3 construct: host or cells: Xenopus oocytes mainly; also COS-7, CHO, yeast variants (not tied to single values)
T3 sequence (Q9BYW1 1-496): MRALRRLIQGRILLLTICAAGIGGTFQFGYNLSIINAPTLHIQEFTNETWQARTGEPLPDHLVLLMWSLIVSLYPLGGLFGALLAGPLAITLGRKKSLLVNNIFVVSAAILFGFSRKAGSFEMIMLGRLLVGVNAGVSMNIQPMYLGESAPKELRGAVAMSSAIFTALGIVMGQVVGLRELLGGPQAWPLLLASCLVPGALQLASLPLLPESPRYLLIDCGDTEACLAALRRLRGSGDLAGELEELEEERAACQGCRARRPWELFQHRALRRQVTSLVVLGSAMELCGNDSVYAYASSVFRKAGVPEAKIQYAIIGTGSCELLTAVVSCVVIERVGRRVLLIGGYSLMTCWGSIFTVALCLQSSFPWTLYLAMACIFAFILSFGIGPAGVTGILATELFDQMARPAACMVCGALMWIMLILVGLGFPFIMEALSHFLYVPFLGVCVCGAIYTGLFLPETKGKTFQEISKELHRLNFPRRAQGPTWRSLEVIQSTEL

GLUT9 = molecular target: T4, GLUT9 (Homo sapiens, UniProt Q9NRM0); conditions: literature; cited from earlier work
T4 construct: host or cells: Xenopus oocytes mainly; also COS-7, CHO, yeast variants (not tied to single values)
T4 sequence (Q9NRM0 1-540): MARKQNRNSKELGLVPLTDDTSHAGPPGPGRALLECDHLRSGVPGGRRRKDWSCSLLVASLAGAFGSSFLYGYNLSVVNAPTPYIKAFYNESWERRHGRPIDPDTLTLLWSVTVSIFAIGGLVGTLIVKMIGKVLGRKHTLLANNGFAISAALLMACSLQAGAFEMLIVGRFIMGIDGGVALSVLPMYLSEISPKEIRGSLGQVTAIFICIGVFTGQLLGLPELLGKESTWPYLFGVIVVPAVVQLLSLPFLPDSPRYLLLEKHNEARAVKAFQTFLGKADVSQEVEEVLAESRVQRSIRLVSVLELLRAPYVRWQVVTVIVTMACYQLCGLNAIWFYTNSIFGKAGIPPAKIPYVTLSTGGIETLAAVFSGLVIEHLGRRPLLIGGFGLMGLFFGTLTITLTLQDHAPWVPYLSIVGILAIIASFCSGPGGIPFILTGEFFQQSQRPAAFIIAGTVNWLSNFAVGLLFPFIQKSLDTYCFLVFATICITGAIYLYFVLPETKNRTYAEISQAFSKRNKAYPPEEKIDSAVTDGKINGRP

GLUT3 = molecular target: T5, GLUT3 (Homo sapiens, UniProt P11169); conditions: literature; cited from earlier work
T5 construct: host or cells: Xenopus oocytes mainly; also COS-7, CHO, yeast variants (not tied to single values)
T5 sequence (P11169 1-496): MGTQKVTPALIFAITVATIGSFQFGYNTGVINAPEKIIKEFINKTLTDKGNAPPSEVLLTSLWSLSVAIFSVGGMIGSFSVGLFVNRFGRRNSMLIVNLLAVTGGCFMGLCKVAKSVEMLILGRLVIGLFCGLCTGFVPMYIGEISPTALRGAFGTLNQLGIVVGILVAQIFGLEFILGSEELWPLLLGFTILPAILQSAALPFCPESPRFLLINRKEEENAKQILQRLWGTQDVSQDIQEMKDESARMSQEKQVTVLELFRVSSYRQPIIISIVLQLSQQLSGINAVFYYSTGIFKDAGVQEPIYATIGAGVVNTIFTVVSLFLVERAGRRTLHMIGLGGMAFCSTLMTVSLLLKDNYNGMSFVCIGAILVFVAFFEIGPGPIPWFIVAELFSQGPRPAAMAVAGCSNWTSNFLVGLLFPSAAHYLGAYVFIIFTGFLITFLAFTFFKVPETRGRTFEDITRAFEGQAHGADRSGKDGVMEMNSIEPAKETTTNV

GLUT2 = molecular target: T6, GLUT2 (Homo sapiens, UniProt P11168); conditions: literature; cited from earlier work
T6 construct: host or cells: Xenopus oocytes mainly; also COS-7, CHO, yeast variants (not tied to single values)
T6 sequence (P11168 1-524): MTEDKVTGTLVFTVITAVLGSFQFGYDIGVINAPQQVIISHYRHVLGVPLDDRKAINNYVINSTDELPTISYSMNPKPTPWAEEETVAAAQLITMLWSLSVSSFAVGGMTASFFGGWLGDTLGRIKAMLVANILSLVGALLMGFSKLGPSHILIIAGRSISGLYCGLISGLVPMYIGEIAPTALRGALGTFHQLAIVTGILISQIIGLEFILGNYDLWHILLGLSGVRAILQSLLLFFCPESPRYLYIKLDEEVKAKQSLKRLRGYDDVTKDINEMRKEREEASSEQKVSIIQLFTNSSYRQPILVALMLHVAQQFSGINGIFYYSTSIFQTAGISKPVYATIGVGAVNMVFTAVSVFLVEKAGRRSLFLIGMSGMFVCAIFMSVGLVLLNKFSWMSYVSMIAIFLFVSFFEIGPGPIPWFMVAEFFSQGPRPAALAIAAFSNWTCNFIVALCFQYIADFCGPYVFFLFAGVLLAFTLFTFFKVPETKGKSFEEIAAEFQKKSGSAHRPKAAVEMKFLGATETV

[2] = system: MCF10A (immortalized breast), MCF7 (breast cancer), A549 (non-small cell lung cancer), Du145 (prostrate cancer), RWPE (immortalized prostrate); assay: Sugar transporter assay: uptake of sugar-fluorophore conjugates by intracellular fluorescence, normalized to cell number; assay type: cell-based; conditions: 1 hour incubation; dose range 250-0 μM; five cell lines; compared with D-glucose conjugate
Procedure: FIG. 5. Representative sugar transporter assays. […] For each cell line, the dose range was 250 μM, 125 μM, 62.5 μM, 31.3 μM, 15.6 μM, 7.8 μM, 3.9 μM and 0 μM. The average error (40 compounds, 5 cell lines) was 8.3%.
For the sugar transporter assay of the present invention, cells were plated at a density of 30,000 cells/ml (100 μL/well) in a 96-well clear bottom microtiter plates. Cells were allowed to attach overnight, and then incubated in glucose-free medium for an additional 24 hours. Compounds were added (from 96-well compound stock plates at a 1:100 dilution) using a Biomek FX liquid handler equipped with a 96 channel head. The plates were incubated for 1 hour and then the compound solution was removed by gentle aspiration. The cells were subsequently washed (1×100 μL) with phosphate buffered saline to remove residual fluorescent dye.
Sugar-conjugate uptake was assessed via intracellular fluorescence (FIG. 4b-4f) as determined using a Safire2™ multi-mode microplate reader (δex=485 nm, δem=535 nm) and normalized to cell number by a subsequent CellTiter-Glo® luminescent cell viability assay. […] The CellTiter-Glo® luminescent cell viability assay was analyzed on a Safire2™ multi-mode microplate reader for luminescence at 1 second per well. As an initial preliminary study, the transport assay with a representative set of probes was also analyzed using microscopy (FIG. 6).

Compound: O=P(NCCCl)(NCCCl)O[C@@H]1O[C@H](CO)[C@@H](O)[C@H](O)[C@H]1O [glufosfamide]
- antitumor activity [1]: higher antitumor activity
- myelotoxicity [1]: lower myelotoxicity

Compound: O=C[C@H](O)[C@@H](O)[C@H](O)CO [xylose]
- transport by GLUT7 (GLUT7): does not transport

Compound: O=C(CO)[C@@H](O)[C@H](O)[C@H](O)CO [fructose]
- affinity for GLUT5 (GLUT5): approximately 1 mM
- transport by GLUT11 (GLUT11): provides for transport

Compound: O=CC[C@@H](O)[C@H](O)[C@H](O)CO [2-deoxyglucose]
- transport by GLUT9 (GLUT9): transport
- transport by GLUT7 (GLUT7): does not transport
- affinity for GLUT3 (GLUT3): approximately 1.5 mM

Compound: N[C@H]1C(O)O[C@H](CO)[C@@H](O)[C@@H]1O (stereo partly drawn) [glucosamine]
- affinity for GLUT2 (GLUT2): approximately 1 mM

Compound: aminofluoroscein [parent 11]
- sugar-conjugate uptake (intracellular fluorescence normalized to cell number) [2]: No uptake

Compound: O=C[C@H](O)[C@@H](O)[C@@H](O)[C@H](O)CO [galactose]
- transport by GLUT7 (GLUT7): does not transport
- transport by GLUT11 (GLUT11): not galactose
